Data from patent US20170334899A1, “AMINO-SUBSTITUTED ISOTHIAZOLES” (Bayer Pharma Aktiengesellschaft, priority 2014, published 2017).

Legend:
[1] = test system: human cervical tumor cell line HeLa (ATCC CCL-2); assay: SAC-Formation - Paclitaxel-Induced Assay; format: cell-based; settings: Homo sapiens, HeLa, 24 h, HeLa cells, paclitaxel 0.05 μM, test range 0.005 μM-20 μM, read-out: IC50 [mol/l] SAC-Formation - Paclitaxel-Induced Assay
How it was run: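 HeLa cells incubated overnight at 37° C, then given paclitaxel (0.05 μM final) plus test compound (0.005–20 μM, 0.5% DMSO) together for 24 h at 37° C. Fixed cells stained for phospho-histone H3 Ser10 (mitotic cells) and Hoechst 33342 (cell count); imaging-derived mitotic index fitted by four-parameter Hill equation.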

CDK2/CycE = biological target: T1, CDK2/CycE (Homo sapiens, UniProt P24941); assay: CDK2/CycE kinase assay (TR-FRET); format: biochemical; settings: avg, read-out: CDK2 avg (IC50 [mol/l])
T1 construct: GST; purchased ProQinase GmbH (Freiburg, Germany); host or cells: insect cells (Sf9)
How it was run: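 GST-tagged human CDK2 and CycE from Sf9 cells, preincubated 15 min with compound, then 25 min at 22° C. with 10 μM ATP and 0.75 μM biotinylated Rb-derived peptide (final). Phospho-substrate read by TR-FRET (anti-pRB pSer807/pSer811, Eu anti-mouse IgG, streptavidin-XL665), 665/620 nm ratio, normalised to no-inhibitor and no-enzyme controls.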

SMILES | IC50 [1] [nM] | IC50 (CDK2/CycE) [µM]
Cc1nsc(Nc2cnc(C(F)(F)F)cn2)c1C(=O)Nc1ccc(F)c(OC2CCN(CC(F)(F)F)C2)c1 (centres unmarked) [Example 315, N-(4-fluoro-3-{[1-(2,2,2-trifluoroethyl)pyrrolidin-3-yl]oxy}phenyl)-3-methyl-5-{[5-(trifluoromethyl)pyrazin-2-yl]amino}-1,2-thiazole-4-carboxamide] | 60 | ≥ 20
Cc1nsc(Nc2cnc(C(F)(F)F)cn2)c1C(=O)Nc1ccc(OCCCNCCC(F)(F)F)nc1 [Example 294, 3-methyl-5-{[5-(trifluoromethyl)pyrazin-2-yl]amino}-N-(6-{3-[(3,3,3-trifluoropropyl)amino]propoxy}pyridin-3-yl)-1,2-thiazole-4-carboxamide] | 560 | > 20
Cc1nsc(Nc2cnc3ccccc3n2)c1C(=O)Nc1cccc(NS(=O)(=O)C2CCN(CC(F)F)CC2)c1 [Example 282, N-[3-({[1-(2,2-difluoroethyl)piperidin-4-yl]sulfonyl}amino)phenyl]-3-methyl-5-(quinoxalin-2-ylamino)-1,2-thiazole-4-carboxamide] | 3500 | > 20
Cc1nsc(Nc2cnc(C(F)(F)F)cn2)c1C(=O)Nc1ccc(C(=O)N2CCN(CC(F)(F)F)CC2)cc1 [Example 260, 3-methyl-N-(4-{[4-(2,2,2-trifluoroethyl)piperazin-1-yl]carbonyl}phenyl)-5-{[5-(trifluoromethyl)pyrazin-2-yl]amino}-1,2-thiazole-4-carboxamide] | 400 | > 20
CC(=O)N1CCC(Oc2ccc(NC(=O)c3c(C)nsc3Nc3cnc4ccccc4n3)cn2)CC1 [Example 22, N-{6-[(1-acetylpiperidin-4-yl)oxy]pyridin-3-yl}-3-methyl-5-(quinoxalin-2-ylamino)-1,2-thiazole-4-carboxamide] | 2100 | ≥ 20
Cc1nsc(Nc2cnc3ccccc3n2)c1C(=O)Nc1cccc(NS(=O)(=O)C2CCN(C(=O)OC(C)(C)C)C2)c1 (centres unmarked) [Example 290, tert-butyl 3-{[3-({[3-methyl-5-(quinoxalin-2-ylamino)-1,2-thiazol-4-yl]carbonyl}amino)phenyl]sulfamoyl} pyrrolidine-1-carboxylate] | 3600 | 19
Cc1nsc(Nc2cncc(C(F)(F)F)n2)c1C(=O)Nc1ccc(F)c(OC2CCN(CCF)CC2)c1 [Example 269, N-(4-fluoro-3-{[1-(2-fluoroethyl)piperidin-4-yl]oxy}phenyl)-3-methyl-5-{[6-(trifluoromethyl)pyrazin-2-yl]amino}-1,2-thiazole-4-carboxamide] | 210 | > 20
Cc1nsc(Nc2cnc3ccccc3n2)c1C(=O)Nc1cccc(C(=O)NC2CC2)c1 [Example 249, N-[3-(cyclopropylcarbamoyl)phenyl]-3-methyl-5-(quinoxalin-2-ylamino)-1,2-thiazole-4-carboxamide] | 1100 | > 20
Cc1nsc(Nc2cncc(C(F)(F)F)n2)c1C(=O)Nc1ccc(F)c(OC2CCN(CC(F)(F)F)CC2)c1 [Example 267, N-(4-fluoro-3-{[1-(2,2,2-trifluoroethyl)piperidin-4-yl]oxy}phenyl)-3-methyl-5-{[6-(trifluoromethyl)pyrazin-2-yl]amino}-1,2-thiazole-4-carboxamide] | 20 | > 20
Cc1nsc(Nc2cnc(C(F)(F)F)cn2)c1C(=O)Nc1ccc(F)c(OCCCNCCC(F)(F)F)c1 [Example 307, N-(4-fluoro-3-{3-[(3,3,3-trifluoropropyl)amino]propoxy}phenyl)-3-methyl-5-{[5-(trifluoromethyl)pyrazin-2-yl]amino}-1,2-thiazole-4-carboxamide] | 380 | ≥ 20
Cc1nsc(Nc2cnc(C(F)(F)F)cn2)c1C(=O)Nc1ccc(F)c(OC2CCN(CC(F)F)C2)c1 (centres unmarked) [Example 314, N-(3-{[1-(2,2-difluoroethyl)pyrrolidin-3-yl]oxy}-4-fluorophenyl)-3-methyl-5-{[5-(trifluoromethyl)pyrazin-2-yl]amino}-1,2-thiazole-4-carboxamide] | 78 | ≥ 20
Cc1nsc(Nc2cnc(C(F)(F)F)cn2)c1C(=O)Nc1ccc(OC2CCN(C(CF)CF)C2)nc1 (centres unmarked) [Example 313, N-(6-{[1-(1,3-difluoropropan-2-yl)pyrrolidin-3-yl]oxy}pyridin-3-yl)-3-methyl-5-{[5-(trifluoromethyl)pyrazin-2-yl]amino}-1,2-thiazole-4-carboxamide] | 55 | ≥ 20
Cc1nsc(Nc2cnc(C(F)(F)F)cn2)c1C(=O)Nc1ccc(C(=O)NC2CCN(CC(F)F)CC2)cc1 [Example 259, N-(4-{[1-(2,2-difluoroethyl)piperidin-4-yl]carbamoyl}phenyl)-3-methyl-5-{[5-(trifluoromethyl)pyrazin-2-yl]amino}-1,2-thiazole-4-carboxamide] | 4400 | > 20
Cc1nsc(Nc2cnc(C(F)(F)F)cn2)c1C(=O)Nc1ccc(F)c(OCC2CCN(C(CF)CF)C2)c1 (centres unmarked) [Example 320, N-(3-{[1-(1,3-difluoropropan-2-yl)pyrrolidin-3-yl]methoxy}-4-fluorophenyl)-3-methyl-5-{[5-(trifluoromethyl)pyrazin-2-yl]amino}-1,2-thiazole-4-carboxamide] | 290 | ≥ 20
Cc1nsc(Nc2cc(C#N)ccn2)c1C(=O)Nc1ccc(OC2CCN(C(=O)OC(C)(C)C)CC2)nc1 [Example 23, tert-Butyl 4-({5-[({5-[(4-cyanopyridin-2-yl)amino]-3-methyl-1,2-thiazol-4-yl}-carbonyl)amino]pyridin-2-yl}oxy)piperidine-1-carboxylate] | 32 | ≥ 20
Cc1nsc(Nc2cnc(C(F)(F)F)cn2)c1C(=O)Nc1ccc(F)c(OCCCN(C)CCC(F)(F)F)c1 [Example 303, N-(4-fluoro-3-{3-[methyl(3,3,3-trifluoropropyl)amino]propoxy}phenyl)-3-methyl-5-{[5-(trifluoromethyl)pyrazin-2-yl]amino}-1,2-thiazole-4-carboxamide] | 32 | ≥ 20
CCNC(=O)c1cccc(NC(=O)c2c(C)nsc2Nc2ccc(C#N)cn2)c1 [Example 252, 5-[(5-cyanopyridin-2-yl)amino]-N-[3-(ethylcarbamoyl)phenyl]-3-methyl-1,2-thiazole-4-carboxamide] | 120 | > 20
Cc1nsc(Nc2cnc3ccccc3n2)c1C(=O)Nc1cccc(C(=O)NC(C)C)c1 [Example 253, N-[3-(isopropylcarbamoyl)phenyl]-3-methyl-5-(quinoxalin-2-ylamino)-1,2-thiazole-4-carboxamide] | 2200 | > 20
Cc1nsc(Nc2cncc(C(F)(F)F)n2)c1C(=O)Nc1ccc(OCCO)nc1 [Example 276, N-[6-(2-hydroxyethoxy)pyridin-3-yl]-3-methyl-5-{[6-(trifluoromethyl)pyrazin-2-yl]amino}-1,2-thiazole-4-carboxamide] | 1900 | > 20
Cc1nsc(Nc2cnc(C(F)(F)F)cn2)c1C(=O)Nc1ccc(F)c(OC2CCN(CCF)CC2)c1 [Example 266, N-(4-fluoro-3-{[1-(2-fluoroethyl)piperidin-4-yl]oxy}phenyl)-3-methyl-5-{[5-(trifluoromethyl)pyrazin-2-yl]amino}-1,2-thiazole-4-carboxamide] | 160 | > 20
Cc1nsc(Nc2cnc3ccccc3n2)c1C(=O)Nc1cccc(NS(=O)(=O)C2CCN(CC(F)(F)F)CC2)c1 [Example 281, 3-methyl-5-(quinoxalin-2-ylamino)-N-[3-({[1-(2,2,2-trifluoroethyl)piperidin-4-yl]sulfonyl}amino)phenyl]-1,2-thiazole-4-carboxamide] | 3900 | > 20
Cc1nsc(Nc2cnc(C(F)(F)F)cn2)c1C(=O)Nc1ccc(F)c(OCC2CCN(CC(F)F)CC2)c1 [Example 308, N-(3-{[1-(2,2-difluoroethyl)piperidin-4-yl]methoxy}-4-fluorophenyl)-3-methyl-5-{[5-(trifluoromethyl)pyrazin-2-yl]amino}-1,2-thiazole-4-carboxamide] | 51 | ≥ 20
CCN1CCC(Oc2ccc(NC(=O)c3c(C)nsc3Nc3cc(C#N)ccn3)cn2)CC1 [Example 26, 5-[(4-Cyanopyridin-2-yl)amino]-N-{6-[(1-ethylpiperidin-4-yl)oxy]pyridin-3-yl}-3-methyl-1,2-thiazole-4-carboxamide] | 20000 | ≥ 20
Cc1nsc(Nc2cncc(C(F)(F)F)n2)c1C(=O)Nc1ccc(C(=O)N2CCN(CC(F)(F)F)CC2)cc1 [Example 272, 3-methyl-N-(4-{[4-(2,2,2-trifluoroethyl)piperazin-1-yl]carbonyl}phenyl)-5-{[6-(trifluoromethyl)pyrazin-2-yl]amino}-1,2-thiazole-4-carboxamide] | 2400 | > 20
Cc1nsc(Nc2cnc(C(F)(F)F)cn2)c1C(=O)Nc1ccc(N(C)C)c(OCCCN(C)CCC(F)(F)F)c1 [Example 300, N-[4-(dimethylamino)-3-{3-[methyl(3,3,3-trifluoropropyl)amino]propoxy}phenyl]-3-methyl-5-{[5-(trifluoromethyl)pyrazin-2-yl]amino}-1,2-thiazole-4-carboxamide] | 2000 | > 20
